Measurements as given in ChEMBL document CHEMBL1201862, “PubChem BioAssay data set” (2004).
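Briefly, cells in 96-well plates were exposed to five compound concentrations for 48 h, and endpoints were estimated by linear interpolation. The concentration for 50% growth inhibition is given as GI50.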 Calls of active or inactive are those of the source. Rule as the data show it: active = GI50 up to about 1.1 µM and inactive = higher.

Experiments:
Test in all cases: NCI tumour cell line growth inhibition, 48 h
786-0 = test system: 786-0
CCRF-CEM = test system: CCRF-CEM
COLO 205 = test system: COLO 205
HL-60 = test system: HL-60
HOP-62 = test system: HOP-62
HT-29 = test system: HT-29
IGROV-1 = test system: IGROV-1
M14 = test system: M14
MCF7 = test system: MCF7
Malme-3M = test system: Malme-3M
NCI-H460 = test system: NCI-H460
NCI/ADR-RES = test system: NCI/ADR-RES
OVCAR-3 = test system: OVCAR-3
SK-OV-3 = test system: SK-OV-3
SNB-19 = test system: SNB-19
TK-10 = test system: TK-10
UACC-62 = test system: UACC-62
UO-31 = test system: UO-31
RPMI-8226 = test system: RPMI-8226
SR = test system: SR

CC1(C)[C@@H]2CC[C@]1(C)[C@H](OC(=O)/C=C/c1ccccc1)C2
GI50 (786-0): 18.1 µM (inactive) | GI50 (CCRF-CEM): 20.4 µM (inactive) | GI50 (COLO 205): 17.1 µM (inactive) | GI50 (HL-60): 18.4 µM (inactive) | GI50 (HOP-62): 30.2 µM (inactive) | GI50 (HT-29): 16.6 µM (inactive) | GI50 (IGROV-1): 27.7 µM (inactive) | GI50 (M14): 29.9 µM (inactive) | GI50 (MCF7): 16.7 µM (inactive) | GI50 (Malme-3M): 17.3 µM (inactive) | GI50 (NCI-H460): 29 µM (inactive) | GI50 (NCI/ADR-RES): 18.9 µM (inactive) | GI50 (OVCAR-3): < 0.01 µM (active) | GI50 (SK-OV-3): 34.9 µM (inactive) | GI50 (SNB-19): 19.8 µM (inactive) | GI50 (TK-10): 36.9 µM (inactive) | GI50 (UACC-62): 21.2 µM (inactive) | GI50 (UO-31): 19.2 µM (inactive)

CCCCCCCC(=O)N1C2CC3CCC2(CS1(=O)=O)C3(C)C (centres undefined)
GI50 (786-0): 15.7 µM (inactive) | GI50 (CCRF-CEM): 16.5 µM (inactive) | GI50 (COLO 205): 21.8 µM (inactive) | GI50 (HL-60): 20 µM (inactive) | GI50 (HOP-62): 20.8 µM (inactive) | GI50 (HT-29): > 10 µM (inactive) | GI50 (IGROV-1): 43.2 µM (inactive) | GI50 (M14): 17.5 µM (inactive) | GI50 (MCF7): 18.7 µM (inactive) | GI50 (Malme-3M): 16.7 µM (inactive) | GI50 (NCI-H460): 30.1 µM (inactive) | GI50 (OVCAR-3): > 10 µM (inactive) | GI50 (RPMI-8226): 19.7 µM (inactive) | GI50 (SK-OV-3): 46.8 µM (inactive) | GI50 (SNB-19): 26 µM (inactive) | GI50 (SR): 18.6 µM (inactive) | GI50 (TK-10): 33.6 µM (inactive) | GI50 (UACC-62): 22.8 µM (inactive) | GI50 (UO-31): 22.6 µM (inactive)

CCCn1c(=O)c(N2CCN(c3ccccc3)CC2)nc2sc3ccccc3c21
GI50 (786-0): > 100 µM (inactive) | GI50 (CCRF-CEM): > 100 µM (inactive) | GI50 (COLO 205): > 100 µM (inactive) | GI50 (HL-60): 49.7 µM (inactive) | GI50 (HOP-62): > 100 µM (inactive) | GI50 (HT-29): > 100 µM (inactive) | GI50 (IGROV-1): > 100 µM (inactive) | GI50 (M14): > 100 µM (inactive) | GI50 (MCF7): > 100 µM (inactive) | GI50 (Malme-3M): > 100 µM (inactive) | GI50 (NCI-H460): > 100 µM (inactive) | GI50 (NCI/ADR-RES): > 100 µM (inactive) | GI50 (OVCAR-3): > 100 µM (inactive) | GI50 (SK-OV-3): > 100 µM (inactive) | GI50 (SNB-19): > 100 µM (inactive) | GI50 (TK-10): > 100 µM (inactive) | GI50 (UACC-62): > 100 µM (inactive) | GI50 (UO-31): > 100 µM (inactive)

O=[N+]([O-])c1cc(C(F)(F)F)ccc1S(=O)(=O)N[C@@H]1CCCC[C@H]1NS(=O)(=O)c1ccc(C(F)(F)F)cc1[N+](=O)[O-]
GI50 (786-0): 3.47 µM (inactive) | GI50 (CCRF-CEM): 2.72 µM (inactive) | GI50 (COLO 205): 2.78 µM (inactive) | GI50 (HL-60): 1.39 µM (inactive) | GI50 (HOP-62): 7.1 µM (inactive) | GI50 (HT-29): 3.37 µM (inactive) | GI50 (IGROV-1): 2.31 µM (inactive) | GI50 (M14): 2.75 µM (inactive) | GI50 (MCF7): 1.72 µM (inactive) | GI50 (Malme-3M): 2.49 µM (inactive) | GI50 (NCI-H460): 3.57 µM (inactive) | GI50 (NCI/ADR-RES): 2.51 µM (inactive) | GI50 (OVCAR-3): 2.38 µM (inactive) | GI50 (SK-OV-3): 13.6 µM (inactive) | GI50 (SNB-19): 5.68 µM (inactive) | GI50 (TK-10): 11 µM (inactive) | GI50 (UACC-62): 3.81 µM (inactive) | GI50 (UO-31): 3.56 µM (inactive)

CC1(c2ccccc2)CC(c2ccccc2)=NO1 (centres undefined)
GI50 (786-0): > 100 µM (inactive) | GI50 (CCRF-CEM): > 100 µM (inactive) | GI50 (COLO 205): > 100 µM (inactive) | GI50 (HL-60): > 100 µM (inactive) | GI50 (HOP-62): > 100 µM (inactive) | GI50 (HT-29): > 100 µM (inactive) | GI50 (IGROV-1): > 100 µM (inactive) | GI50 (M14): > 100 µM (inactive) | GI50 (Malme-3M): > 100 µM (inactive) | GI50 (NCI-H460): > 100 µM (inactive) | GI50 (OVCAR-3): > 100 µM (inactive) | GI50 (RPMI-8226): > 100 µM (inactive) | GI50 (SK-OV-3): > 100 µM (inactive) | GI50 (SNB-19): > 100 µM (inactive) | GI50 (SR): > 100 µM (inactive) | GI50 (TK-10): > 100 µM (inactive) | GI50 (UACC-62): > 100 µM (inactive) | GI50 (UO-31): > 100 µM (inactive)

CCCC(=O)C1=C(O)C(Cc2c(O)c(C)c(O)c(C(=O)CCC)c2O)=C(O)C(C)(C)C1=O
GI50 (786-0): > 50 µM (inactive) | GI50 (CCRF-CEM): 0.421 µM (active) | GI50 (COLO 205): 19.4 µM (inactive) | GI50 (HOP-62): 31.8 µM (inactive) | GI50 (HT-29): 20.4 µM (inactive) | GI50 (IGROV-1): 37 µM (inactive) | GI50 (M14): > 50 µM (inactive) | GI50 (MCF7): 21.9 µM (inactive) | GI50 (NCI-H460): 14.3 µM (inactive) | GI50 (OVCAR-3): > 50 µM (inactive) | GI50 (RPMI-8226): 17 µM (inactive) | GI50 (SK-OV-3): 22.6 µM (inactive) | GI50 (SNB-19): 20.7 µM (inactive) | GI50 (SR): 14.7 µM (inactive) | GI50 (TK-10): 30.6 µM (inactive) | GI50 (UACC-62): > 50 µM (inactive) | GI50 (UO-31): 15.6 µM (inactive)

O=c1c2cc(Br)cc(Br)c2[nH]c(=S)n1-c1ccc(/N=N/c2ccc(O)c3cccnc23)cc1
GI50 (786-0): 25.7 µM (inactive) | GI50 (COLO 205): 32.1 µM (inactive) | GI50 (HL-60): 38.1 µM (inactive) | GI50 (HOP-62): 33.3 µM (inactive) | GI50 (HT-29): 39.6 µM (inactive) | GI50 (IGROV-1): 11.2 µM (inactive) | GI50 (M14): 39.7 µM (inactive) | GI50 (MCF7): 12.9 µM (inactive) | GI50 (Malme-3M): 18.7 µM (inactive) | GI50 (OVCAR-3): 14 µM (inactive) | GI50 (RPMI-8226): 33.9 µM (inactive) | GI50 (SK-OV-3): > 100 µM (inactive) | GI50 (SNB-19): 19.7 µM (inactive) | GI50 (SR): 3.61 µM (inactive) | GI50 (TK-10): 66.1 µM (inactive) | GI50 (UO-31): 34.9 µM (inactive)
